Several values for one entry are separate records, joined by “and”; a condition that tells them apart may be missing. Equal values may be shown once. Toxic doses and inconclusive results are not listed.

Consider 20 compounds from PubChem BioAssay AID248 (DTP/NCI, 2004).

In this assay the test system is L1210 leukemia ip in BDF1 mice, survival T/C. In words: NCI In Vivo Anticancer Drug Screen. Data for tumor model L1210 Leukemia (intraperitoneal) in B6D2F1 (BDF1) mice. The conditions noted are these: endpoint: mean survival time, higher = longer survival. Summed up: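 Survival endpoint. Drug-treated group vs vehicle group, expressed as T divided by C. Tumor passaged by transplantation.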

Setting [1] is: dose: 100.0 mg/kg/injection, schedule: Q01DX001 (ip), vehicle: saline.
[2] abbreviates: dose: 200.0 mg/kg/injection, schedule: Q01DX001 (ip), vehicle: saline.
[3] abbreviates: dose: 400.0 mg/kg/injection, schedule: Q01DX001 (ip), vehicle: saline.
The mark [4] stands for this setting: dose: 100.0 mg/kg/injection, schedule: Q01DX001 (ip), vehicle: saline with Tween-80.
The mark [5] stands for this setting: dose: 100.0 mg/kg/injection, schedule: Q01DX009 (ip), vehicle: saline with Tween-80.
[6] abbreviates: dose: 100.0 mg/kg/injection, schedule: Q04DX003 (ip), vehicle: saline with Tween-80.
The mark [7] stands for this setting: dose: 200.0 mg/kg/injection, schedule: Q04DX003 (ip), vehicle: saline with Tween-80.
[8] abbreviates: dose: 400.0 mg/kg/injection, schedule: Q01DX009 (ip), vehicle: saline with Tween-80.
Setting [9] is: dose: 400.0 mg/kg/injection, schedule: Q04DX003 (ip), vehicle: saline with Tween-80.
The mark [10] stands for this setting: dose: 200.0 mg/kg/injection, schedule: Q01DX009 (ip), vehicle: saline with Tween-80.

With `CCN(CC)Cc1c(C)[nH]c2c(OC)cccc2c1=O`, the T/C is, setting by setting: (dose: 25.0 mg/kg/injection, schedule: Q04DX003 (ip), vehicle: water) 103 % of control; (dose: 50.0 mg/kg/injection, schedule: Q04DX003 (ip), vehicle: water) 97 % of control; (dose: 100.0 mg/kg/injection, schedule: Q01DX009 (ip), vehicle: water) 101 % of control; (dose: 100.0 mg/kg/injection, schedule: Q04DX003 (ip), vehicle: water) 100 % of control and 102 % of control.
In the case of `CCOC(=O)N1C2CCC(C2)N1C(=O)OCC`, the T/C is 103 % of control under setting [1], 100 % of control under setting [2] and 103 % of control under setting [3].
For `CCCCCCCCCN(CCCC)CCCC`, the T/C reads like this: (dose: 25.0 mg/kg/injection, schedule: Q01DX001 (ip), vehicle: saline with Tween-80) 95 % of control; (dose: 50.0 mg/kg/injection, schedule: Q01DX001 (ip), vehicle: saline with Tween-80) 88 % of control; under setting [4], 102 % of control.
In the case of `Nc1c(Cl)ncnc1NC1CC(CO)CC1O` (configuration not stated), the T/C is 96 % of control (dose: 100.0 mg/kg/injection, schedule: Q01DX001 (ip), vehicle: Klucel (hydroxypropylcellulose) (HPC)); 93 % of control (dose: 200.0 mg/kg/injection, schedule: Q01DX001 (ip), vehicle: Klucel (hydroxypropylcellulose) (HPC)); 96 % of control (dose: 400.0 mg/kg/injection, schedule: Q01DX001 (ip), vehicle: Klucel (hydroxypropylcellulose) (HPC)).
In the case of `CCC(=O)O[C@H]1CC[C@H]2[C@@H]3[C@@H](C)CC4=CC(=O)CC[C@]4(C)[C@H]3CC[C@]12C`, the T/C under setting [5] was 93 % of control; the T/C under setting [6] was 90 % of control; the T/C under setting [7] is 90 % of control; the T/C under setting [8] was 91 % of control; the T/C under setting [9] was 87 % of control.
Take `O=C(O)c1c(Cl)c(Cl)c(C(=O)O)c(Cl)c1Cl`: the T/C by setting is: under setting [5], 95 % of control; under setting [10], 93 % of control; under setting [8], 89 % of control.
Take `Cc1ccc2nc(NC(=O)N(CCCl)N=O)sc2c1`: the T/C was 103 % of control (dose: 53.0 mg/kg/injection, schedule: Q01DX009 (ip), vehicle: carboxymethylcellulose (CMC)); 113 % of control (dose: 80.0 mg/kg/injection, schedule: Q01DX009 (ip), vehicle: carboxymethylcellulose (CMC)); 150 % of control (dose: 118.0 mg/kg/injection, schedule: Q01DX001 (ip), vehicle: other); 193 % of control (dose: 118.0 mg/kg/injection, schedule: Q01DX006 (ip), vehicle: other); 114 % of control (dose: 120.0 mg/kg/injection, schedule: Q01DX009 (ip), vehicle: carboxymethylcellulose (CMC)); 157 % of control (dose: 180.0 mg/kg/injection, schedule: Q01DX001 (ip), vehicle: carboxymethylcellulose (CMC)). Further, the T/C runs as follows: (dose: 200.0 mg/kg/injection, schedule: Q01DX001 (ip), vehicle: carboxymethylcellulose (CMC)) 158 % of control; (dose: 266.0 mg/kg/injection, schedule: Q01DX006 (ip), vehicle: other) 98 % of control; (dose: 266.0 mg/kg/injection, schedule: Q01DX009 (ip), vehicle: carboxymethylcellulose (CMC)) 161 % of control; (dose: 400.0 mg/kg/injection, schedule: Q01DX001 (ip), vehicle: carboxymethylcellulose (CMC)) 170 % of control; (dose: 400.0 mg/kg/injection, schedule: Q01DX006 (ip), vehicle: other) 90 % of control.
Take `CCCCCCCCCCCCCCCC1CCCC(C)N1` (configuration not stated): the T/C is, setting by setting: (dose: 6.25 mg/kg/injection, schedule: Q04DX002 (ip), vehicle: saline with Tween-80) 104 % of control; (dose: 12.5 mg/kg/injection, schedule: Q04DX002 (ip), vehicle: saline with Tween-80) 96 % of control; (dose: 25.0 mg/kg/injection, schedule: Q04DX002 (ip), vehicle: saline with Tween-80) 100 % of control.
With `O=C(CCCl)OCC#CCOC(=O)CCCl`, the T/C by setting is: under setting [5], 101 % of control; under setting [10], 94 % of control.
In the case of `Cc1cc(N(CCOS(C)(=O)=O)CCOS(C)(=O)=O)ccc1C=Nc1ccc2ccccc2c1`, the T/C by setting is: (dose: 13.3 mg/kg/injection, schedule: Q04DX003 (ip), vehicle: Klucel (hydroxypropylcellulose) (HPC)) 116 % of control; (dose: 20.0 mg/kg/injection, schedule: Q04DX003 (ip), vehicle: Klucel (hydroxypropylcellulose) (HPC)) 108 % of control and 117 % of control; (dose: 80.0 mg/kg/injection, schedule: Q04DX003 (ip), vehicle: Klucel (hydroxypropylcellulose) (HPC)) 112 % of control.
In the case of `O=C(O)COc1ccc(Cl)cc1Cl` (tested in a mixture with another compound), the T/C (dose: 25.0 mg/kg/injection, schedule: Q04DX003 (ip), vehicle: saline) was 102 % of control; the T/C (dose: 50.0 mg/kg/injection, schedule: Q04DX003 (ip), vehicle: saline) was 98 % of control; the T/C (dose: 100.0 mg/kg/injection, schedule: Q01DX001 (ip), vehicle: carboxymethylcellulose (CMC)) is 93 % of control; the T/C (dose: 100.0 mg/kg/injection, schedule: Q04DX003 (ip), vehicle: other) is 90 % of control; the T/C (dose: 200.0 mg/kg/injection, schedule: Q04DX003 (ip), vehicle: other) was 95 % of control; the T/C (dose: 400.0 mg/kg/injection, schedule: Q04DX003 (ip), vehicle: other) is 115 % of control.
Regarding `O=C(Nc1cccc2c1N(C(=O)c1ccco1)CCC2)c1ccco1`, the T/C is, setting by setting: under setting [5], 98 % of control; under setting [6], 94 % of control; under setting [10], 101 % of control; under setting [7], 96 % of control; under setting [8], 95 % of control; under setting [9], 96 % of control.
With `O=c1c2ccccc2nc(-c2ccccc2)n1O`, the T/C was 103 % of control (dose: 100.0 mg/kg/injection, schedule: Q04DX003 (ip), vehicle: Klucel (hydroxypropylcellulose) (HPC)); 106 % of control (dose: 200.0 mg/kg/injection, schedule: Q04DX003 (ip), vehicle: Klucel (hydroxypropylcellulose) (HPC)); 91 % of control (dose: 400.0 mg/kg/injection, schedule: Q04DX003 (ip), vehicle: Klucel (hydroxypropylcellulose) (HPC)).
For the compound `CC(=O)Nc1ccc(/C=N\NC(=O)CCCC(=O)N/N=C/c2ccc(NC(C)=O)cc2)cc1`, the T/C was 104 % of control (dose: 50.0 mg/kg/injection, schedule: Q01DX001 (ip), vehicle: saline); 96 % of control under setting [1]; 91 % of control (dose: 100.0 mg/kg/injection, schedule: Q01DX009 (ip), vehicle: saline); 92 % of control under setting [2]; 98 % of control under setting [3]; 88 % of control (dose: 400.0 mg/kg/injection, schedule: Q01DX009 (ip), vehicle: saline).
For the compound `CCOC(=O)c1ccc(NCc2cnc(N)nc2N)cc1`, the T/C is, setting by setting: under setting [1], 97 % of control; under setting [2], 90 % of control; under setting [3], 90 % of control.
Consider `O=C(O)CC1NCc2cc3ccccc3nc21` (configuration not stated), for which the T/C (dose: 10.0 mg/kg/injection, schedule: Q04DX003 (ip), vehicle: alcohol) is 94 % of control; the T/C (dose: 20.0 mg/kg/injection, schedule: Q04DX003 (ip), vehicle: alcohol) was 99 % of control; the T/C (dose: 40.0 mg/kg/injection, schedule: Q04DX003 (ip), vehicle: alcohol) was 105 % of control; the T/C (dose: 80.0 mg/kg/injection, schedule: Q04DX003 (ip), vehicle: alcohol) was 99 % of control; the T/C (dose: 160.0 mg/kg/injection, schedule: Q04DX003 (ip), vehicle: alcohol) was 97 % of control.
On to `CN(C)Cc1cccc2ccccc12`, for which, where the note is “dose: 50.0 mg/kg/injection, schedule: Q01DX009 (ip), vehicle: Klucel (hydroxypropylcellulose) (HPC)”, the T/C is 95 % of control.
Consider `O=[N+]([O-])c1cccc(OCCOc2cccc([N+](=O)[O-])c2)c1`, for which the T/C runs as follows: under setting [1], 97 % of control; under setting [2], 96 % of control; under setting [3], 103 % of control.
On to `CC(CO)CCCC(C)C1CCC2C3CCC4CC(O)CCC4(C)C3CCC12C` (configuration not stated), for which the T/C was 95 % of control under setting [4]; 87 % of control (dose: 200.0 mg/kg/injection, schedule: Q01DX001 (ip), vehicle: saline with Tween-80); 90 % of control (dose: 400.0 mg/kg/injection, schedule: Q01DX001 (ip), vehicle: saline with Tween-80).
`CCCNC(=O)C1C2CC3OC(=O)C1C3C2` (configuration not stated): the T/C under setting [6] was 90 % of control; the T/C (dose: 100.0 mg/kg/injection, schedule: Q04DX003 (ip), vehicle: saline) was 98 % of control; the T/C under setting [7] is 95 % of control; the T/C (dose: 200.0 mg/kg/injection, schedule: Q04DX003 (ip), vehicle: saline) is 91 % of control; the T/C under setting [9] was 93 % of control; the T/C (dose: 400.0 mg/kg/injection, schedule: Q04DX003 (ip), vehicle: saline) is 102 % of control.
